For eight molecules, Ki results are on record in patent US9617281B2, “Imidazo[2,1-b]thiazole derivatives, their preparation and use as medicaments” (LABORATORIOS DEL DR. ESTEVE S.A., priority 2012, dated 2017).

Structures can show the parent of a compound that is named as a salt.

σ1-receptor, sequence (Q60492 whole entry): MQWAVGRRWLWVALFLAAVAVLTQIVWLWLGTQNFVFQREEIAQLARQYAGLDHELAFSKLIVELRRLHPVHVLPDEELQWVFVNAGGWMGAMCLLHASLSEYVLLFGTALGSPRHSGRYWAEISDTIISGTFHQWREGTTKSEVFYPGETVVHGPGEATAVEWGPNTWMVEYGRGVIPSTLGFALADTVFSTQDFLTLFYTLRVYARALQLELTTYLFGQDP

This assay has as its target σ1-receptor (Cavia porcellus (Guinea pig), UniProt Q60492). Nature of the assay: σ1-receptor binding assay with [3H]-(+)-pentazocine in guinea pig brain membranes. The conditions noted are these: radioligand [3H]-(+)-pentazocine 5.0 nM, 150 min at 37° C. The protocol:
Brain membrane preparation and binding assays for the σ1-receptor were performed as described (DeHaven-Hudkins, D. L., L. C. Fleissner, and F. Y. Ford-Rice, 1992, Characterization of the binding of [^3H](+)pentazocine to a recognition sites in guinea pig brain, Eur. J. Pharmacol. 227, 371-378) with some modifications. Guinea pig brains were homogenized in 10 vols. (w/v) of Tris-HCl 50 mM 0.32 M sucrose, pH 7.4, with a Kinematica Polytron PT 3000 at 15000 r.p.m. for 30 s. The homogenate was centrifuged at 1000 g for 10 min at 4° C. and the supernatants collected and centrifuged again at 48000 g for 15 min at 4° C. The pellet was resuspended in 10 volumes of Tris-HCl buffer (50 mM, pH 7.4), incubated at 37° C. for 30 min, and centrifuged at 48000 g for 20 min at 4° C. Following this, the pellet was re-suspended in fresh Tris-HCl buffer (50 mM, pH 7.4) and stored on ice until use.
The radioligand used was [^3H]-(+)-pentazocine at 5.0 nM and the final volume was 200 μl. The incubation was initiated with the addition of 100 μl of membrane at a final tissue concentration of approximately 5 mg tissue net weight/mL and the incubation time was 150 m. at 37° C. After incubation, the membranes were collected onto pretreated glass fiber filterplate (MultiScreen-FC, Millipore), with polyethylenimine 0.1%. The filters were washed two times with 200 μl of washing buffer (50 mM Tris Cl, pH=7.4) and then 25 μl of Ecoscint H liquid scintillation cocktail were added. Microplates were allowed to set for several hours and then quantified by liquid scintillation spectrophotometry (1450 Microbeta, Wallac). Nonspecific binding was determined with 1 μM haloperidol.
As for `CN1CCN(Cc2cn3cc(-c4ccccc4)sc3n2)CC1` [Compound 7, 6-((4-methylpiperazin-1-yl)methyl)-2-phenylimidazo[2,1-b]thiazole maleate], the Ki came to 56 nM. For the molecule `CN1CCN(Cc2cn3nc(-c4ccccc4)sc3n2)CC1` [Compound 11, 6-((4-methylpiperazin-1-yl)methyl)-2-phenylimidazo[2,1-b][1,3,4]thiadiazole maleate], the Ki turned out to be 260 nM. Next, `c1ccc(-c2cn3cc(CN4CCCCCC4)sc3n2)cc1` [Compound 12, 2-(azepan-1-ylmethyl)-6-phenylimidazo[2,1-b]thiazole maleate]: 100 nM; `c1ccc(-c2cn3cc(COCCN4CCCCCC4)nc3s2)cc1` [Compound 9, 6-((2-(azepan-1-yl)ethoxy)methyl)-2-phenylimidazo[2,1-b]thiazole maleate]: 40 nM. As for `c1ccc(-c2nn3cc(COCCN4CCCCCC4)nc3s2)cc1` [Compound 4, 6-((2-(azepan-1-yl)ethoxy)methyl)-2-phenylimidazo[2,1-b][1,3,4]thiadiazole maleate], the figure is 168 nM.

In turn, `CN1CCN(Cc2cn3cc(-c4ccc(F)cc4)sc3n2)CC1` [Compound 13, 2-(4-fluorophenyl)-6-((4-methylpiperazin-1-yl)methyl)imidazo[2,1-b]thiazole maleate] gave an inhibition constant (Ki) of 210 nM. Next, `c1ccc(-c2cn3cc(CN4CCCCCC4)nc3s2)cc1` [Compound 6, 6-(azepan-1-ylmethyl)-2-phenylimidazo[2,1-b]thiazole maleate]: 16 nM; `c1ccc(-c2cn3cc(COCCN4CCCC4)nc3s2)cc1` [Compound 10, 2-phenyl-6-((2-(pyrrolidin-1-yl)ethoxy)methyl)imidazo[2,1-b]thiazole maleate]: 190 nM.

As a reminder, the Ki is a measure of affinity in units of concentration, obtained from inhibition or displacement. Lower therefore signals a stronger hold on the target.
